For this data set the following is noted: aqueous SnF2.

This is an account of results in patent publication US20200085864A1, “Stannous Fluoride Sugar Alcohol Solid Solutions” (WhiteHill Life Sciences, LLC, priority 2018, published 2020).

In the case of `[F][Sn][F]` [Stannous fluoride], the “Natural pH of stannous fluoride” value is listed as “about 3.2”.
